Assay [1] has as its system 5-HT, NE and DA reuptake into rat brain synaptosomes. Type of assay: biochemical, rat (male Sprague-Dawley). How it is done:
(§1) Briefly, the tissue was homogenized in 20 volumes of ice-cold 0.32 M sucrose containing 11 mM glucose, pH 7.4 in a glass Potter-Elvehjemhomogenizer with teflon pestle (8 strokes, 900 rpm). The homogenate was centrifuged at 1,000 g for 10 minutes. The resulting supernatant was then centrifuged at 20,000 g for 20 minutes and the supernatent was discarded.
(§2) Briefly, synaptosomal protein (1.0-2.5 mg) was suspended in a total volume of 1 mL containing oxygenated incubation buffer, 10 μM pargyline to inhibit monoamine oxidase activity, 0.2 mg/mL sodium ascorbate and varying concentrations of other compounds or drugs as indicated in the text. […] After a 5 minute preincubation at 37° C. in a shaking water bath (80 oscillations/minute), the uptake was initiated by the addition of […]. The reaction was stopped after 5 minute by adding 4 mL ice-cold 0.9% (w/v) sodium chloride and rapidly filtered through a Whatman GF/B glass fiber filter in a 48-place Brandel cell harvester. The filter was then washed with an additional 8 mL of wash buffer, placed in a scintillation vial containing 5 mL of Redi-Safe (Beckman Instruments, Fullerton, Calif.) and counted. Specific uptake was calculated as the difference between the total uptake (zero unlabelled ligand) and nonspecific uptake (excess unlabelled ligand).

Assay [2] concerns the target T1, human serotonin transporter (hSERT) (Homo sapiens, UniProt P31645).
T1 construct: expressed in transfected cells; membranes of cells expressing the cloned hSERT
Type of assay: binding. The procedure: (§3) These transporters are responsible for neuronal reuptake of the neurotransmitters.
(§4) Cells were incubated in 10% CO2, 90% air at 37° C. and 100% humidity. The selecting antibiotic geneticin sulfate (250 μg/ml) was used during the cell culture for the hNET only.
(§5) For the preparation of homogenates, medium was removed by aspiration. […] Cells were then scraped from the surface with a rubber spatula into a centrifuge tube and collected by centrifugation at 1000×g for 5 min at 4° C. Supernatants were decanted and the pellet was resuspended in the appropriate binding buffer and homogenized with the use of a Polytron for 10 sec at setting 6. This solution was centrifuged at about 36,000×g for 10 minutes (4° C.). The pellet was suspended in the same volume of buffer and the centrifugation was repeated. The supernatants were decanted and the final pellet was suspended in the appropriate buffer and stored at -80° C. until use.
(§6) For the membranal preparation, cells were homogenized in 50 mM Tris-HCl with 120 mM NaCl and 5 mM KC1 (pH 7.4). […] The reaction mixture was incubated at 22° C. for 30 min. The assay was terminated by rapid filtration of the contents of each tube through a GF/B filter strip, which had been pretreated with 0.2% polyethylenimine, with the use of a 48-well Brandel cell harvester. The filter strips were then rinsed five times with ice-cold 0.9% NaCl. Next, individual filters were cut from the strip and placed in a scintillation vial containing 6.5 mL of Redi-Safe (Beckman Instruments, Fullerton, Calif.). Radioactivity was measured with a Beckman liquid scintillation counter (LS 5000TD).
(§7) The program was modified by the inventors to calculate the Hill Coefficient (nH). […] One-component models and two-component models were compared using the root mean square error of each fit and the F test.

In assay [3] the target is human norepinephrine transporter (hNET) (Homo sapiens, UniProt P23975). Type of assay: binding.
The target in assay [4] is T2, 5-HT reuptake into rat brain synaptosomes (Rattus norvegicus, UniProt P31652).
T2 construct: A crude synaptosomal (P2) fraction was prepared; tissue Harlan Sprague-Dawley (animals); host or cells: rat cerebral cortex, crude synaptosomal (P2) fraction
Nature of the assay: 5-HT reuptake inhibition in rat brain synaptosomes. Type of assay: biochemical, rat (male Sprague-Dawley), cortical tissue. As to conditions: Ki (5-HT)/Ki (compound or drug); Prozac to Serzone derived from literature Ki. The procedure: as §1, §2

The target of assay [5] is T3, DA reuptake into rat brain synaptosomes (Rattus norvegicus, UniProt P23977).
T3 construct: A crude synaptosomal (P2) fraction was prepared; tissue Harlan Sprague-Dawley (animals); host or cells: rat striatum, crude synaptosomal (P2) fraction
The assay is described as follows: DA reuptake inhibition in rat brain synaptosomes. It counts as biochemical, rat (male Sprague-Dawley), striatal tissue. As to conditions: Ki (DA)/Ki (compound or drug); Prozac to Serzone derived from literature Ki.

Assay [6] deals with T4, human dopamine transporter (hDAT) (Homo sapiens, UniProt Q01959).
T4 construct: expressed in transfected cells; membranes of cells expressing the cloned hDAT
Nature of the assay: [3H]WIN35428 binding to cloned human DAT. As to conditions: Kd (DA)/Kd (compound or drug) in the hDAT binding assay. The procedure:
as §3, §4, §5
(§8) For the membranal preparation, cells were homogenized in the 50 mM Tris-HCl with 120 mM NaCl (pH 7.4). […] The reaction mixture was incubated at 4° C. for 2 hr. The remaining methods were exactly as described for hSERT above.
as §7

In assay [7] the target is T5, NE reuptake into rat brain synaptosomes (Rattus norvegicus, UniProt Q63380).
T5 construct: A crude synaptosomal (P2) fraction was prepared; tissue Harlan Sprague-Dawley (animals); host or cells: rat hippocampus, crude synaptosomal (P2) fraction
Nature of the assay: biochemical. Also noted: species or system rat (male Sprague-Dawley), hippocampal tissue.

For a further assay, the system named is hSERT, hNET, and hDAT. The assay is described as follows: Simultaneous binding to cloned human transporters hSERT, hNET and hDAT. The procedure: as §3, §4, §5, §6
For the membranal preparation, cells were homogenized in 50 mM Tris-HCl with 300 mM NaCl and 5 mM KCl (pH 7.4). […] The reaction mixture was incubated at 22° C. for 60 min. The remaining methods were exactly as described for hSERT above.
as §8, §7

Assay [8] has as its target T5, NE reuptake into rat brain synaptosomes. As to conditions: cited from earlier work.
Setting [9] is: Table 5, comparison of rat and human data.

The structures appear in SMILES notation. Like-named read-outs stand apart in the source and are kept apart here.

T5 sequence (Q63380 1-617): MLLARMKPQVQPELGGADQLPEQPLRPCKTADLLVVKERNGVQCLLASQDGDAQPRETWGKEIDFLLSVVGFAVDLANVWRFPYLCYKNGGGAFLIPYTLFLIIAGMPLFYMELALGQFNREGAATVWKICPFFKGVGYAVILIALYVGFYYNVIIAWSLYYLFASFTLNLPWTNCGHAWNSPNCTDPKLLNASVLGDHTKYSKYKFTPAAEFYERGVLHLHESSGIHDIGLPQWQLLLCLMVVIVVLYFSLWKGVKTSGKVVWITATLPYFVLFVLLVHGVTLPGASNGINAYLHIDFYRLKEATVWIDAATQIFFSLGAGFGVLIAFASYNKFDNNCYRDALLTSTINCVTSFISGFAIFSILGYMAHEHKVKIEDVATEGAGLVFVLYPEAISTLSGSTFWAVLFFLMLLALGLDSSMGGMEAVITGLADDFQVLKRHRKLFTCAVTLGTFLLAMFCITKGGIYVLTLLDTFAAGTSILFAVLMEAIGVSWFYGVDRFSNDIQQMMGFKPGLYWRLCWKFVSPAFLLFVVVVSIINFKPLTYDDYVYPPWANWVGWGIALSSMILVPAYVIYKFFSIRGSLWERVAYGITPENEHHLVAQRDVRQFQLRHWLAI
Chain of human norepinephrine transporter (hNET) (P23975 whole entry): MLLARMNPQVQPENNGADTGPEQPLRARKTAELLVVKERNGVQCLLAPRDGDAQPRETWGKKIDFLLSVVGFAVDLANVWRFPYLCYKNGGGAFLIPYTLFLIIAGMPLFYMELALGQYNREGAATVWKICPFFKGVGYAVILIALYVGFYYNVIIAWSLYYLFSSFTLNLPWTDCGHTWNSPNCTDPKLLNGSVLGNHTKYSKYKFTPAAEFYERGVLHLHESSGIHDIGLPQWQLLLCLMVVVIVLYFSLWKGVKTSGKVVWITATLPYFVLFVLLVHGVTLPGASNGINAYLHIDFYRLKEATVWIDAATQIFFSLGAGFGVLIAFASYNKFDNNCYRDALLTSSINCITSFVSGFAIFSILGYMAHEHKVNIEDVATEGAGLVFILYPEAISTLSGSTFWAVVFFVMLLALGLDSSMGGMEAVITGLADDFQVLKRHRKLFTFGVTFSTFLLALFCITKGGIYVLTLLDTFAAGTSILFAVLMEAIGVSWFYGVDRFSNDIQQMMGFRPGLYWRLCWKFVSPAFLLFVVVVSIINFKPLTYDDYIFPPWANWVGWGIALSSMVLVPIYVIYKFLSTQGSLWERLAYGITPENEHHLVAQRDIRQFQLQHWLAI
T1 sequence (P31645 whole entry): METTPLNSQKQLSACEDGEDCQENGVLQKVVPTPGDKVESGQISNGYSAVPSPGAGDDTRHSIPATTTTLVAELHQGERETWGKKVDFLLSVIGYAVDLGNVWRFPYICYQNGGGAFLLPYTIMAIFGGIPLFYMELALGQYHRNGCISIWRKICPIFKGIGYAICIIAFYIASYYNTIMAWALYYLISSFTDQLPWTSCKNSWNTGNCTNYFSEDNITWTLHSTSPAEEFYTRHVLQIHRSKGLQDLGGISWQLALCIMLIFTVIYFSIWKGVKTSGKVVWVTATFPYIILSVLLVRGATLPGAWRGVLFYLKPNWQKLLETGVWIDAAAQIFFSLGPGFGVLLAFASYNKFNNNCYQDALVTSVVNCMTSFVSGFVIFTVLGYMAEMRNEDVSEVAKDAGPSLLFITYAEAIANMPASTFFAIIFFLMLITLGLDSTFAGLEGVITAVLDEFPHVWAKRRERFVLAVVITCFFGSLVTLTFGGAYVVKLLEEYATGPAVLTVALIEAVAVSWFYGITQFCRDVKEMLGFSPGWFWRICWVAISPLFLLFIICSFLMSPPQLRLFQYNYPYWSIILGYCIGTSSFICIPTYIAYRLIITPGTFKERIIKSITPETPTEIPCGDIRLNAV
T4 sequence (Q01959 whole entry): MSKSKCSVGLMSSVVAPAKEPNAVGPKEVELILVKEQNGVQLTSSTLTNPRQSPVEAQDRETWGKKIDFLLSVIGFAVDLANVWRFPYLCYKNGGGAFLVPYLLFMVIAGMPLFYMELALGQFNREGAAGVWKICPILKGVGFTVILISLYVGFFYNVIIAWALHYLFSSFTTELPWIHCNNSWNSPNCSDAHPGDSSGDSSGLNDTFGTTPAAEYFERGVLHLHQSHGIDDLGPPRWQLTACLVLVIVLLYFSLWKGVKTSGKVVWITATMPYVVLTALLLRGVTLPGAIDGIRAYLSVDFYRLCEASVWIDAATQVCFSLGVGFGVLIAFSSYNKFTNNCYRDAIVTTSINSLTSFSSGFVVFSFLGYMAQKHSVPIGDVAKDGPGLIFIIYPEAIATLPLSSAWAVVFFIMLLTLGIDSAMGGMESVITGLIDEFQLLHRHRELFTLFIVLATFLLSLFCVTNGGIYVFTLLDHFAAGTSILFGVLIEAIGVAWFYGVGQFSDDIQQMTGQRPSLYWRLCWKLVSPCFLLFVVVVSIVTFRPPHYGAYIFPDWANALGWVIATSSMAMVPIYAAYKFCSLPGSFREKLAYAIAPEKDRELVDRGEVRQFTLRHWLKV
T2 sequence (P31652 whole entry): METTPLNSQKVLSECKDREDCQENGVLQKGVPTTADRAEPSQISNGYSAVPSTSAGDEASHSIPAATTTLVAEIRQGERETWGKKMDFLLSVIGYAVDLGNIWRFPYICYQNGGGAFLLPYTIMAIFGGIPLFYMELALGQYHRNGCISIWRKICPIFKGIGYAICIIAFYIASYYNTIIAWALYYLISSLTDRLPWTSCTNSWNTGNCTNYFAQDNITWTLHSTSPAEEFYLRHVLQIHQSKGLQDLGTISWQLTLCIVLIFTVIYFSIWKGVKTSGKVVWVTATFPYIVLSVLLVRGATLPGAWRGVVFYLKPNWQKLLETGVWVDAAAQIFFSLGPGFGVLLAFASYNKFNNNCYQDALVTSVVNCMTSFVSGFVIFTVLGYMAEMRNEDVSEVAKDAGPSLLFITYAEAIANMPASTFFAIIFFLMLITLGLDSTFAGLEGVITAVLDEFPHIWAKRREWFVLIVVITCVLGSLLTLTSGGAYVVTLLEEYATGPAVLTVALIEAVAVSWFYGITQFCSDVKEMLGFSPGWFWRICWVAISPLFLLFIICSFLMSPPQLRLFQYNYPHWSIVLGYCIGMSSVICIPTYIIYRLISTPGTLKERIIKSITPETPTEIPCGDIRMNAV
T3 sequence (P23977 whole entry): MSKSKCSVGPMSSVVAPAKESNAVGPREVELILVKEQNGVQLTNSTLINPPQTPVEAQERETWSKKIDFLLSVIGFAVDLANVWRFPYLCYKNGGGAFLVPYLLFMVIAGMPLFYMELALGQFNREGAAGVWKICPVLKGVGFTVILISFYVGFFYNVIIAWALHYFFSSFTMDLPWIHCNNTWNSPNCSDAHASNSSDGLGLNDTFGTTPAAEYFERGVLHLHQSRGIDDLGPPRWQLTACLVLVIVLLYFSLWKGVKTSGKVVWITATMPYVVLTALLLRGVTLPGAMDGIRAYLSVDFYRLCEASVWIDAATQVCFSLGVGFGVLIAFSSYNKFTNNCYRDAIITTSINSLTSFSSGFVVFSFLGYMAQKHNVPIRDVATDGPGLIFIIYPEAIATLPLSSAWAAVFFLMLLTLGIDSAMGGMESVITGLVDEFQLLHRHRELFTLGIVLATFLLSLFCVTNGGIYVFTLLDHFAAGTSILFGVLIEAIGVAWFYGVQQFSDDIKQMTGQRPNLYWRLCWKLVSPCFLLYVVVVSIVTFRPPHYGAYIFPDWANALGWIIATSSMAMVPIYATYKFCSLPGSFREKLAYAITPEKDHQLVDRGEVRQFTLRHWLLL

As for `COc1ccc([C@H](CN(C)C)[C@@H](O)C2CCCCC2)cc1.Cl` (racemic) [Compound E, (2RS,3SR)-3-Cyclohexyl-3-hydroxy-2-(4'-methoxyphenyl)-propyl-N,N-dimethylammonium chloride], the “Simultaneous Reuptake Inhibition Potency” value in assay [1] is recorded as “no”. In addition, in [1] (setting [9]), the “Simultaneous Reuptake Inhibition Potency (Rat)” value is listed as “no”. In addition, the “hSert Binding Potency” value in assay [2] is given as 70. Further, the “hNet Binding Potency” value in assay [3] (Kd (NE)/Kd (compound or drug) in the hNET binding assay) was determined as 1.24. For the same compound, the “5-HT (Rat) Reuptake Inhibition Potency” value in [4] was determined as 0.62. Further, the “DA (Rat) Reuptake Inhibition Potency” value in assay [5] was determined as 0.10. The “hDAT Binding Potency” value in assay [6] turned out to be 0.69. In addition, in assay [7] (Ki (NE)/Ki (compound or drug), Prozac to Serzone derived from literature Ki), the “NE (Rat) Reuptake Inhibition Potency” value came to 0.54. Also, the “Simultaneous Transporter Binding Potency” value in the assay with hSERT, hNET, and hDAT (Table 4, each of the potency values greater than 7.0) is “no”. Further, the “Simultaneous Transporter Binding Potency (Human)” value with hSERT, hNET, and hDAT (setting [9]) is reported as “no”.
By Ki is commonly meant the dissociation constant of the complex between target and ligand, obtained from inhibition or displacement. With `Fc1ccc([C@@H]2CCNC[C@H]2COc2ccc3c(c2)OCO3)cc1` [Paxil ®, reference compound], in [1], the “Simultaneous Reuptake Inhibition Potency” value is given as “no” and the “Simultaneous Reuptake Inhibition Potency (Rat)” value is on record as “no”. Besides, in assay [3], the “hNet Binding Potency” value turned out to be 55. The “NE (Rat) Reuptake Inhibition Potency” value in assay [7] stood at 3.61. For the same compound, the Ki in [8] was 33 ± 2 nM.

The record behind these values is patent publication US6069177A, “3-Hydroxy-propanamine derived neuronal reuptake inhibitors” (priority 1997, dated 2000).
